Assay results from paper PMC9238271, “The quorum sensing peptide EntF* promotes colorectal cancer metastasis in mice: a new factor in the host-microbiome interaction” (BMC Biology, 2022).

Key:
[1] = test system: E-cadherin expression in Caco-2 cells; assay: Western blot of E-cadherin expression, Caco-2 cells; assay type: cell-based
Experimental: (§1) HCT-8, HT-29, and HT-116 cells were grown in DMEM medium supplied with 10% fetal bovine serum (FBS) and 1% penicillin-streptomycin. Caco-2 cells were grown in DMEM medium supplied with 10% FBS, 1% non-essential amino acid NEAA), and 1% penicillin-streptomycin. Cells were cultured at 37 °C and 5% CO2. As cells reached confluency, they were detached using 0.25% Trypsin-EDTA.
For Western blot analyses, HCT-8 (n = 15), HCT-116 (n = 12), Caco-2 (n = 6), and HT-29 (n = 12) cells were seeded in 6-well plates at a density of 1 × 10^6 cells/well. Twenty-four hours after seeding, all cell lines were treated with 1 μM EntF* or a placebo solution. HCT-8 cells were also tested for responsiveness to 1 μM EntF* synthetic alanine-derived analogs. For antagonist activity analysis, HCT-8 cells were treated with 1 μM Nef-M1 or 1 μM EntF*A1 alone or in combination with 500 nM EntF*. After 24 h, cells were detached from the surface and lysed in RIPA buffer (Thermo Scientific). Protein concentration was determined using the modified Lowry protein assay kit (Thermo Scientific), according to the manufacturer’s instructions. Protein samples were diluted to the same concentration (4 μg/μL) with water and diluted again 1:1 using 2x Laemmli buffer. After that, samples were boiled for 5 min at 95 °C to denature proteins and centrifuged for 5 min at 16,000g; supernatants were used for Western blot analyses. Equal amounts of total protein (20 μg/lane) were separated by SDS-PAGE on an Any kD^TM gel (Bio-Rad ) and then transferred to a PVDF membrane. Before incubation with antibodies, non-specific binding sites on the membranes were blocked using 5% skimmed milk solution (1 h). TBS buffer with 0.05% Tween 20 was used for all washing steps. Membranes were incubated overnight at 4 °C with an anti-E-cadherin primary antibody (1/1000 dilution). An HRP-conjugated anti-rabbit antibody (1/2000 dilution, 1 h incubation) was used for chemiluminescent detection. Membranes were incubated with the detection substrate for 5 min and signal detection was performed using the ChemiDoc EZ imager and Image Lab software (Bio-Rad). […]

[2] = test system: E-cadherin expression in HCT-8 cells; assay: Western blot of E-cadherin expression, HCT-8 cells (EntF*, alanine and D-amino acid analogs); assay type: cell-based
Experimental: as §1
For Western blot analyses, HCT-8 (n = 15), HCT-116 (n = 12), Caco-2 (n = 6), and HT-29 (n = 12) cells were seeded in 6-well plates at a density of 1 × 10^6 cells/well. Twenty-four hours after seeding, all cell lines were treated with 1 μM EntF* or a placebo solution. HCT-8 cells were also tested for responsiveness to 1 μM EntF* synthetic alanine-derived analogs. For antagonist activity analysis, HCT-8 cells were treated with 1 μM Nef-M1 or 1 μM EntF*A1 alone or in combination with 500 nM EntF*. After 24 h, cells were detached from the surface and lysed in RIPA buffer (Thermo Scientific). Protein concentration was determined using the modified Lowry protein assay kit (Thermo Scientific), according to the manufacturer’s instructions. Protein samples were diluted to the same concentration (4 μg/μL) with water and diluted again 1:1 using 2x Laemmli buffer. After that, samples were boiled for 5 min at 95 °C to denature proteins and centrifuged for 5 min at 16,000g; supernatants were used for Western blot analyses. Equal amounts of total protein (20 μg/lane) were separated by SDS-PAGE on an Any kD^TM gel (Bio-Rad ) and then transferred to a PVDF membrane. Before incubation with antibodies, non-specific binding sites on the membranes were blocked using 5% skimmed milk solution (1 h). TBS buffer with 0.05% Tween 20 was used for all washing steps. Membranes were incubated overnight at 4 °C with an anti-E-cadherin primary antibody (1/1000 dilution). An HRP-conjugated anti-rabbit antibody (1/2000 dilution, 1 h incubation) was used for chemiluminescent detection. Membranes were incubated with the detection substrate for 5 min and signal detection was performed using the ChemiDoc EZ imager and Image Lab software (Bio-Rad). Signal intensity was normalized against the total protein content in each lanes.
A quantitative approach was used to evaluate the importance of each amino acid, where the Fisher’s LSD p-values of (1) multiple comparisons between EntF* and the alanine (ALA) scan and (2) multiple comparisons between different peptides of the ALA scan are combined. Subsequently, based on the combined P-score, the amino acids were classified in 5 classes using a hierarchical cluster analysis and confirmed using the Jenks natural breaks algorithm with K = 5. CombinedPscore=1-PPBSvsALAscan*PEntF*vsALAscan

## CC(C)C[C@@H]1NC(=O)[C@H](CO)NC(=O)[C@H](Cc2ccccc2)NC(=O)[C@H](C(C)C)NC(=O)[C@@H](NC(=O)[C@H](CCC(=O)O)NC(=O)[C@@H](NC(=O)[C@H](CC(C)C)NC(=O)[C@H](CC(N)=O)NC(=O)[C@@H](N)CO)C(C)C)CSSC[C@@H](C(=O)N[C@@H](CC(N)=O)C(=O)O)NC(=O)[C@H](CCCCN)NC(=O)[C@H](CCCCN)NC(=O)[C@H](Cc2ccccc2)NC1=O (single isomer, unassigned) [EntF*]
[1]; 1 μM EntF* or CXCL12, 24 h, n = 6
  effect on E-cadherin expression in Caco-2 cells: statistically significant reduction
[1]; CaCo-2 cells, average of n = 6
  Relative E-cadherin in different cell lines, Average: 40.1
[2]; 24 h, n = 15
  effect on E-cadherin levels in HCT-8 cells: significant decrease
[2]; Ala-scan sheet, Blot 19 (single blot), chemiluminescence band, placebo lane = 100
  Relative E-cadherin decrease: 54.8007
[2]; Ala-scan sheet, Blot 20 (single blot), chemiluminescence band, placebo lane = 100
  E-cadherin expression relative to H2O control (= 100): 67.4208
[2]; Ala-scan sheet, Blot 21 (single blot), chemiluminescence band, placebo lane = 100
  Relative E-cadherin decrease: 65.0177
[2]; Ala-scan sheet, Blot 24 (single blot), chemiluminescence band, Norm. Vol. relative to placebo lane = 100
  E-cadherin expression relative to H2O control (= 100): 28.5
[2]; Ala-scan sheet, Blot 25 (single blot), chemiluminescence band, Norm. Vol. relative to placebo lane = 100
  E-cadherin expression relative to H2O control (= 100): 21.0
[2]; Ala-scan sheet, Blot 26 (single blot), chemiluminescence band, Norm. Vol. relative to placebo lane = 100
  E-cadherin expression relative to H2O control (= 100): 35.9
[2]; Ala-scan sheet, Blot 27 (single blot), chemiluminescence band, Norm. Vol. relative to placebo lane = 100
  E-cadherin expression relative to H2O control (= 100): 217.9
[2]; Ala-scan, Blot 11 (single blot replicate), normalized band volume relative to Placebo = 100.0
  E-cadherin expression relative to H2O control (= 100): 93.8
[2]; Ala-scan, Blot 12 (single blot replicate), normalized band volume relative to Placebo = 100.0
  E-cadherin expression relative to H2O control (= 100): 85.9
[2]; Ala-scan, Blot 13 (single blot replicate), normalized band volume relative to Placebo = 100.0
  E-cadherin expression relative to H2O control (= 100): 94.6
[2]; Ala-scan, Blot 14 (single blot replicate), normalized band volume relative to Placebo = 100.0
  E-cadherin expression relative to H2O control (= 100): 84.9
[2]; Ala-scan, Blot 18 (single blot replicate), normalized band volume relative to Placebo = 100.0
  E-cadherin expression relative to H2O control (= 100): 74.8
[2]; D-scan, Blot 1 (replicate), Norm. Vol. relative to H2O lane = 100.0, chemiluminescence
  E-cadherin expression relative to H2O control (= 100): 92.9
[2]; D-scan, Blot 2 (replicate), Norm. Vol. relative to H2O lane = 100.0, chemiluminescence
  E-cadherin expression relative to H2O control (= 100): 90.1
[2]; D-scan, Blot 3 (replicate), Norm. Vol. relative to H2O lane = 100.0, chemiluminescence
  E-cadherin expression relative to H2O control (= 100): 85.4
[2]; D-scan, Blot 4 (replicate), Norm. Vol. relative to H2O lane = 100.0, chemiluminescence
  E-cadherin expression relative to H2O control (= 100): 88.3
[2]; D-scan, Blot 6 (replicate), Norm. Vol. relative to H2O lane = 100.0, chemiluminescence
  E-cadherin expression relative to H2O control (= 100): 95.4
[2]; D-scan, Blot 7 (replicate), Norm. Vol. relative to H2O lane = 100.0, chemiluminescence
  E-cadherin expression relative to H2O control (= 100): 92.1
[2]; D-scan, Blot 8 (replicate), Norm. Vol. relative to H2O lane = 100.0, chemiluminescence
  E-cadherin expression relative to H2O control (= 100): 99.2
[2]; D-scan, Blot 9 (replicate), Norm. Vol. relative to H2O lane = 100.0, chemiluminescence
  E-cadherin expression relative to H2O control (= 100): 67.6
[2]; D-scan, Blot 10 (replicate), Norm. Vol. relative to H2O lane = 100.0, chemiluminescence
  E-cadherin expression relative to H2O control (= 100): 83.3
[2]; D-scan, Blot 11 (replicate), Norm. Vol. relative to H2O lane = 100.0, chemiluminescence
  E-cadherin expression relative to H2O control (= 100): 74.5
[2]; D-scan, Blot 12 (replicate), Norm. Vol. relative to H2O lane = 100.0, chemiluminescence
  E-cadherin expression relative to H2O control (= 100): 74.5
[2]; H2O = 100.0, CXCL12 at 10µg/ml, mean of the replicates (row r47, unlabelled; SEM in row below)
  E-cadherin expression relative to H2O control (= 100): 85.8
[2]; H2O = 100.0, CXCL12 at 10µg/ml, replicate 1 (row r35)
  E-cadherin expression relative to H2O control (= 100): 92.9
[2]; H2O = 100.0, CXCL12 at 10µg/ml, replicate 2 (row r36)
  E-cadherin expression relative to H2O control (= 100): 90.1
[2]; H2O = 100.0, CXCL12 at 10µg/ml, replicate 3 (row r37)
  E-cadherin expression relative to H2O control (= 100): 85.4
[2]; H2O = 100.0, CXCL12 at 10µg/ml, replicate 4 (row r38)
  E-cadherin expression relative to H2O control (= 100): 88.3
[2]; H2O = 100.0, mean of the replicates (row r29, unlabelled; SEM in row below)
  Ala scan: Relative E-cadherin decrease: 62.0
[2]; H2O = 100.0, replicate 5 (row r39)
  E-cadherin expression relative to H2O control (= 100): 95.4
[2]; H2O = 100.0, replicate 6 (row r40)
  E-cadherin expression relative to H2O control (= 100): 92.1
[2]; H2O = 100.0, replicate 7 (row r41)
  E-cadherin expression relative to H2O control (= 100): 99.2
[2]; H2O = 100.0, replicate 8 (row r42)
  E-cadherin expression relative to H2O control (= 100): 67.6
[2]; H2O = 100.0, replicate 9 (row r43)
  E-cadherin expression relative to H2O control (= 100): 83.3
[2]; H2O = 100.0, replicate 10 (row r44)
  E-cadherin expression relative to H2O control (= 100): 74.5
[2]; H2O = 100.0, replicate 11 (row r45)
  E-cadherin expression relative to H2O control (= 100): 74.5
[2]; HCT-8 cells, average (EntF* n = 15, CXCL12 n = 4)
  Relative E-cadherin decrease in different cell lines, Average: 62.0
